Measurements reported in PubChem BioAssay (NCI).
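How tested: cells in 96-well plates exposed to compound for 48 hours at five concentrations. Here, GI50 denotes the concentration required for 50% inhibition of growth. Definition used: TGI = concentration required for complete inhibition of growth.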 Where a SMILES comes first, the peptide text is derived from it. [ ]: non-standard residue; d: D form. The star is where a group is joined. ξ: configuration not given here. Phe(4-NO2) = N[CH](Cc1ccc([N+](=O)[O-])cc1)C(=O)O; ξF = NC(Cc1ccccc1)C(=O)O; Cbz = O=C(OCc1ccccc1)*; Boc = CC(C)(C)OC(=O)*; Aib = CC(C)(N)C(=O)O; OBn = c1ccc(CO*)cc1

Columns and labels:
Experiment in all cases: NCI anticancer screen, dose series, 48 h
HL-60(TB) leukemia = tested on: HL-60(TB) leukemia
MOLT-4 leukemia = tested on: MOLT-4 leukemia
A549 NSCLC = tested on: A549 NSCLC
HS 578T breast = tested on: HS 578T breast
RPMI-8226 leukemia = tested on: RPMI-8226 leukemia
HOP-92 NSCLC = tested on: HOP-92 NSCLC
UACC-257 melanoma = tested on: UACC-257 melanoma
SK-MEL-28 melanoma = tested on: SK-MEL-28 melanoma
SW-620 colon = tested on: SW-620 colon
T-47D breast = tested on: T-47D breast
COLO 205 colon = tested on: COLO 205 colon

Compound | TGI (HL-60(TB) leukemia) [µM] | TGI (MOLT-4 leukemia) [µM] | TGI (A549 NSCLC) [µM] | TGI (HS 578T breast) [µM] | TGI (RPMI-8226 leukemia) [µM] | TGI (HOP-92 NSCLC) [µM] | TGI (UACC-257 melanoma) [µM] | TGI (SK-MEL-28 melanoma) [µM] | TGI (SW-620 colon) [µM] | TGI (T-47D breast) [µM] | TGI (COLO 205 colon) [µM] | GI50 (RPMI-8226 leukemia) [µM]
CC(=O)NNc1nc(C)c(C(/C=C/c2ccc3c(c2)OCO3)=N/Nc2ccccc2)s1 | > 100 | > 100 | > 100 | > 100 | > 100 | > 100 | > 100 | > 100 | > 100 | > 100 | > 100 | 
COc1cc2c3cc1Oc1c(O)c(OC)cc4c1[C@H](Cc1ccc(cc1)Oc1cc(ccc1O)C[C@H]3N(C)CC2)N(C)CC4 | 33.9 | > 43.8 | 39.6 | 64.9 | 20 | 39.4 | 33.9 | 39.2 | 57.3 | 46.1 | 28.5 | 
CC(C)(CN)CN | > 100 | > 100 | > 100 | > 100 | > 100 | > 100 | > 100 | > 100 | > 100 | > 100 | > 100 | 
N=C(N)SCCON1C(=O)c2ccccc2C1=O | > 100 | > 100 | > 100 | > 100 | > 100 | > 100 | > 100 | > 100 | > 100 | > 100 | > 100 | 
O=C(NCCN(CCNC(=O)c1cccc(=O)n1O)CCN(CCNC(=O)c1cccc(=O)n1O)CCNC(=O)c1cccc(=O)n1O)c1cccc(=O)n1O | > 100 |  | > 100 | > 100 | > 100 | > 100 | > 100 | > 100 | > 100 | > 100 | > 100 | 
NCCC(N)C(=O)O (stereo not drawn) | > 100 | > 100 | > 100 | > 100 | > 100 | > 100 | > 100 | > 100 | > 100 | > 100 | > 100 | 
Cn1c(=O)c2c(nc(NCCCCl)n2CC(=O)O)n(C)c1=O | > 100 | > 100 | > 100 | > 100 | > 100 | > 100 | > 100 | > 100 | > 100 | > 100 | > 100 | 
Cc1c(C)c(C)c(-n2[nH]c(=O)n(C)c2=O)c(C)c1C | > 100 | > 100 | > 100 | > 100 | > 100 | > 100 | > 100 | > 100 | > 100 | > 100 | > 100 | 
Cc1ccc(C)n2c1nc1ccc3ccccc3c12 | > 100 | > 100 | > 100 | > 100 | > 100 | > 100 | > 100 | > 100 | > 100 | > 100 | > 100 | 
CC(C)(C)OC(=O)n1cc(C2CNC(=O)C23CCC(=O)N3Cc2ccccc2)c2ccccc21 (stereo not drawn) | 82.5 | > 100 | 40.4 | 86.5 | 40.8 | 26.7 | 65.2 |  | > 100 | > 100 | 33.4 | 
c1ccc(CNc2c3c(nc4ccccc24)CCC3)cc1 | 0.146 | 51 | 38.9 | 65.5 | 29.9 | 25.9 | 29.3 | 24.3 | 28.2 | 38.7 | 25 | 
CC(=O)O/C=C\OC1CCCC1(c1ccccc1)c1ccccc1 (stereo not drawn) | 2.89 | 9.07 | 43.8 | 9.8 | 6.13 | 3.89 | 13.6 | 4.59 | 4.72 | 6.19 | 13.8 | 
COc1ccc(N(C(=O)Nc2ccc(Cl)c(Cl)c2)c2ccccc2)cc1 | > 10 | > 10 | > 10 | > 10 |  | > 10 | > 10 | > 10 | > 10 | > 10 | > 10 | 
O=c1[nH]nc(Cc2ccccc2)n1/N=C/c1c[nH]c2ccccc12 | > 100 | > 100 | > 100 | 79.4 | > 100 | > 100 | > 100 | > 100 | > 100 | > 100 | > 100 | 
COc1cccc(N2C(=O)C3c4[nH]c5ccccc5c4C4c5ccccc5CCC4C3C2=O)c1 (stereo not drawn) | > 10 | > 10 | > 10 | 7.06 | > 10 | > 10 |  | > 10 | > 10 | > 10 | > 10 | 
Cc1ccc([N+](=O)[O-])cc1S(=O)(=O)Nc1ccc(C2=NN(c3ccc([N+](=O)[O-])cc3[N+](=O)[O-])C(c3ccccc3)C2)cc1 (stereo not drawn) | 57.5 | 70.8 | 96.6 | 72 | > 100 | 35.9 | 40.7 | > 100 | > 100 | > 100 | 37.4 | 
Brc1ccc(N=NN2CCCCC2)cc1 |  | 46.2 |  | > 100 | 30.9 | > 100 | > 100 |  | > 100 | > 100 | > 100 | 
COC(=O)CCC(NC(=O)OC(C)(C)C)C(=O)NC(Cc1ccc([N+](=O)[O-])cc1)C(=O)NCC(=O)OCc1ccccc1 (stereo not drawn) (Boc-Glu(OMe)-[Phe(4-NO2)]-Gly-OBn; configuration not given here) | > 100 | > 100 | > 100 | > 64.4 | > 100 | > 95.1 | > 100 | > 100 | > 100 | > 100 | > 100 | 
Cc1cn(C2CC(n3cc(Cn4cc(F)c(=O)[nH]c4=O)nn3)C(CO)O2)c(=O)[nH]c1=O (stereo not drawn) | > 100 | > 100 | > 100 | > 100 | > 100 | > 100 | > 100 | > 100 | > 100 | > 100 | > 100 | 
COc1ccc2nc3cc(Cl)ccc3c(NCCCCCC(=O)NC(COc3cnc4c(ccc5cccnc54)c3)COc3cnc4c(ccc5cccnc54)c3)c2c1 | 15.1 | 11.6 | > 100 | > 100 | 20.2 | > 100 | 31.4 | > 100 | 24.4 | 28.6 | 10.7 | 
COc1ccc(N2C=Nn3c(nc4sc(C)c(C)c4c3=O)C2)cc1 |  | > 100 | > 100 | > 100 | > 100 | > 100 | > 100 | > 100 | > 100 | > 100 | > 100 | 
Cn1ccnc1S/C(=C\C=C(C#N)C#N)c1ccc(Cl)cc1 | 3.42 | 6.25 | 22.6 | 13.6 | 53.6 | 4.18 | 5.5 |  | 11.9 | > 100 | > 35.6 | 19.2
COC(=O)CCCc1ccc2c(c1)CC1(C2)Cc2cc3c(cc2C1)CCCC3 | 29.2 | 38.9 | 67.7 | 90.9 | 85.2 | 85.1 | > 100 |  |  | > 100 | 53 | 
CC(=O)Oc1ccc(/C=C/C(=O)O[C@@H](C)[C@H](C)OC(=O)/C=C/c2ccc(OC(C)=O)c(OC(C)=O)c2)cc1OC(C)=O |  | > 100 | > 100 | > 100 | 39.1 | 58.2 | 65.1 | 77.7 | 35.3 | 61.2 | > 100 | 
CC(C)(NC(=O)OCc1ccccc1)C(=O)NC(Cc1ccccc1)C(=O)O (stereo not drawn) (Cbz-[Aib]-[ξF]-OH) |  | > 100 | > 100 | > 100 | > 100 | > 100 | > 100 | > 100 | > 100 | > 100 | > 100 | 
Oc1ccc(/C=C\c2nnc(/C=C\c3ccc(O)c(O)c3)s2)cc1O | 2.94 | 11.7 | > 52.8 | 28.7 |  | 29.6 | 35.7 | 25.2 | 13.3 | 5.37 | 22.5 | 
Cc1cnoc1NC1=CC(=O)C(=O)c2ccccc21 |  | 38.8 | 63.8 | > 100 | 50.3 | > 100 | 49.3 | > 100 | 80.4 | > 100 | > 100 | 
Cc1cc2c(cc1Cl)Sc1nnc(Nc3ccccc3)n1S2(=O)=O | 16.4 | 13.5 | 32.7 | 12.6 | 6.91 | 28.8 | 61.2 | 70.9 | > 100 | 57.3 |  | 
CCCCOC(=O)C(=O)C(CCC(=O)c1ccc(C)cc1)C(=O)C=C(C)C (stereo not drawn) | > 100 | > 100 | > 100 | > 100 | > 100 | > 100 | > 100 | > 100 | > 100 | > 100 |  | 
CCNC(=O)Nc1cccc(C)n1 | > 100 | > 100 | > 100 | > 100 |  | > 100 | > 100 | > 100 | > 100 | > 100 | > 100 | 
